Source: US7015237B2, “Pyridine matrix metalloproteinase inhibitors” (Warner-Lambert Company, priority 2001, dated 2006)

Assays:
[1] = target: MMP-13 (catalytic domain of collagenase 3) (Homo sapiens, UniProt P45452); experiment: Thiopeptolide substrate hydrolysis assay, MMP-13; format: biochemical; details: catalytic domain of collagenase 3; Table 1; read-out: MMP-13 IC50
Description: (§1) The assays used to evaluate the biological activity of the invention compounds are well known and routinely used by those skilled in the study of MMP inhibitors and their use to treat clinical conditions.
(§2) The assays measure the amount by which a test compound reduces the hydrolysis of a thiopeptolide substrate catalyzed by a matrix metalloproteinase enzyme. Such assays are described in detail by Ye et al., in Biochemistry, 1992; 31(45):11231–11235, which is incorporated herein by reference.
Thiopeptolide substrates show virtually no decomposition or hydrolysis at or below neutral pH in the absence of a matrix metalloproteinase enzyme. A typical thiopeptolide substrate commonly utilized for assays is Ac-Pro-Leu-Gly-thioester-Leu-Leu-Gly-OEt. A 100-μL assay mixture will contain 50 mM of N-2-hydroxyethylpiperazine-N′-2-ethanesulfonic acid buffer (“HEPES”) at pH 7.0, 10 mM CaCl2, 100 μM thiopeptolide substrate, and 1 mM 5,5′-dithio-bis-(2-nitro-benzoic acid) (DTNB). The thiopeptolide substrate concentration may be varied from, for example, 10 to 800 μM to obtain Km and Kcat values. The change in absorbance at 405 nm is monitored on a Thermo Max microplate reader (Molecular Devices, Menlo Park, Calif.) at room temperature (22° C.). The calculation of the amount of hydrolysis of the thiopeptolide substrate is based on E412=13600 M^−1 cm^−1 for the DTNB-derived product 3-carboxy-4-nitrothiophenoxide. Assays are carried out with and without matrix metalloproteinase inhibitor compounds, and the amount of hydrolysis is compared for a determination of inhibitory activity of the test compounds.
In the tables, MMP-1 refers to full-length interstitial collagenase; MMP-3 refers to the catalytic domain of stromelysin-1; MMP-13 refers to the catalytic domain of collagenase 3. Test compounds were evaluated at various concentrations to determine their respective IC50 values.

[2] = target: T1, MMP-1 (full-length interstitial collagenase) (Homo sapiens, UniProt P03956); experiment: Thiopeptolide substrate hydrolysis assay, MMP-1; format: biochemical; details: pH 7.0, 22° C.
T1 sequence (P03956 100-469): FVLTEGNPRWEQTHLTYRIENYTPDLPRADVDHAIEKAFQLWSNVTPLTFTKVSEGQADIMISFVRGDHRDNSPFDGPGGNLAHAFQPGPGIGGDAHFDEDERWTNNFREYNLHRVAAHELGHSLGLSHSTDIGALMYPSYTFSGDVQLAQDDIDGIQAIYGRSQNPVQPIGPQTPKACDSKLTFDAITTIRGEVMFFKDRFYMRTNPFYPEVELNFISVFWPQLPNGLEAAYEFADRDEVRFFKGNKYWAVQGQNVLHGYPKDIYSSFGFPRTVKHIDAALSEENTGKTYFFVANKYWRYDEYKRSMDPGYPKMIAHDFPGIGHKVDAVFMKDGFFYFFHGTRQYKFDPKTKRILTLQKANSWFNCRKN
Description: as §1, with “The invention compounds of Formula I have been evaluated in standard assays for their ability to inhibit the catalytic activity of various MMP enzymes. The” for “The”
as §2
Thiopeptolide substrates show virtually no decomposition or hydrolysis at or below neutral pH in the absence of a matrix metalloproteinase enzyme. A typical thiopeptolide substrate commonly utilized for assays is Ac-Pro-Leu-Gly-thioester-Leu-Leu-Gly-OEt. […] The change in absorbance at 405 nm is monitored on a Thermo Max microplate reader (Molecular Devices, Menlo Park, Calif.) at room temperature (22° C.). […]
Representative compounds have been evaluated for their ability to inhibit various matrix metalloproteinase enzymes. […] Test compounds were evaluated at various concentrations to determine their respective IC50 values.

Compound	IC50 [1] [µM]	melting point [°C]	IC50 [2] [µM]
O=C(NCc1cccc(Cl)c1)c1cncc(C(=O)NCc2cccc(Cl)c2)c1 [Example 3, Pyridine-3,5-dicarboxylic acid bis-(3-chloro-benzylamide)]	30	185 to 186	–
COc1ccc(CNC(=O)c2cncc(C(=O)NCc3ccc(OC)cc3)c2)cc1 [Example 6, Pyridine-3,5-dicarboxylic acid bis-(4-methoxy-benzylamide)]	8.7	224 to 225	–
O=C(NCc1ccc2c(c1)OCO2)c1cncc(C(=O)NCc2ccc3c(c2)OCO3)c1 [Example 7, Pyridine-3,5-dicarboxylic acid bis-[(1,3-benzodioxol-5-ylmethyl)-amide]]	2.3	194 to 195	30
O=C(NCc1ccc(F)cc1)c1cncc(C(=O)NCc2ccc(F)cc2)c1 [Example 9, Pyridine-3,5-dicarboxylic acid bis-(4-fluoro-benzylamide)]	–	216 to 218	–
